Test results reported in ChEMBL document CHEMBL6092180 (Eur J Med Chem, 2024).
≈ marks a conversion by molar mass, not a printed value.

Legend:
Pichia kudriavzevii = assay: Antifungal activity against Candida krusei GIM 2.1 assessed as inhibition of fungal growth by CLSI M27-A3 guidelines based method; type: functional
Candida albicans [1] = assay: Antifungal activity against Candida albicans SC5314 assessed as inhibition of fungal growth by CLSI M27-A3 guidelines based method; type: functional
Candida tropicalis = assay: Antifungal activity against Candida tropicalis GIM 2.183 assessed as inhibition of fungal growth by CLSI M27-A3 guidelines based method; type: functional
[2] = Metabolic stability in human liver microsomes assessed as half-life preincubated for 10 mins followed by NADPH addition and measured after 60 mins by LC-MS/MS analysis; type: ADME, Microsome; conditions: time 70 min
Candida albicans [3] = assay: Antifungal activity against Candida albicans GIM 2.194 assessed as inhibition of fungal growth by CLSI M27-A3 guidelines based method; type: functional
Candida parapsilosis = assay: Antifungal activity against Candida parapsilosis GIM 2.190 assessed as inhibition of fungal growth by CLSI M27-A3 guidelines based method; type: functional; conditions: Lodderomyces parapsilosis
Nakaseomyces glabratus = assay: Antifungal activity against Candida glabrata assessed as inhibition of fungal growth by CLSI M27-A3 guidelines based method; type: functional
[4] = Metabolic stability in human liver microsomes assessed as parent compound remaining preincubated for 10 mins followed by NADPH addition and measured after 60 mins by LC-MS/MS analysis; type: ADME, Microsome; conditions: time 70 min, read-out: Stability
Cryptococcus neoformans = assay: Antifungal activity against Cryptococcus neoformans CGMCC 2.3161 assessed as inhibition of fungal growth by CLSI M27-A3 guidelines based method; type: functional

Structure (SMILES)	MIC80 (Pichia kudriavzevii) [µg/mL]	MIC80 (Candida albicans [1]) [µg/mL]	MIC80 (Candida tropicalis) [µg/mL]	half-life [2] [min]	MIC80 (Candida albicans [3]) [µg/mL]	MIC80 (Candida parapsilosis) [µg/mL]	MIC80 (Nakaseomyces glabratus) [µg/mL]	remaining at 1 h [4] [%]	MIC80 (Cryptococcus neoformans) [µg/mL]
CN(Cc1ccc(C#Cc2ccccc2)cc1)CC(O)(Cn1cncn1)c1ccc(F)cc1F (stereo not drawn)	0.05 (≈ 0.109 µM)	0.013 (≈ 0.0284 µM)	0.013 (≈ 0.0284 µM)	4.39	0.013 (≈ 0.0284 µM)	0.013 (≈ 0.0284 µM)	0.1 (≈ 0.218 µM)	0.936	0.025 (≈ 0.0545 µM)
CN(Cc1ccc(C#Cc2ccc(F)cc2F)cc1)CC(O)(Cn1cncn1)c1ccc(F)cc1F (stereo not drawn)	0.01 (≈ 0.0202 µM)	0.006 (≈ 0.0121 µM)	0.006 (≈ 0.0121 µM)	26.3	0.006 (≈ 0.0121 µM)	0.006 (≈ 0.0121 µM)	0.01 (≈ 0.0202 µM)	20.9	0.013 (≈ 0.0263 µM)
